Key:
[1] = test system: human liver microsome (HLM); experiment: Human liver microsomal metabolism in vitro (release of 2FM-UMP); assay type: in vitro ADME; settings: formation of 2FM-UMP, versus other candidate compounds of Table 3
From the text: The human liver microsome (HLM) used in this test was purchased from In Vitro Technologies (IVT) with a batch number of SSP X008070, which was a mixed liver microsome extracted from the liver tissues of 150 donors. The product description recorded that the metabolic activity of CYP3A4 in this batch of the human liver microsomes was 1.734 nmol/mg/min (the rate at which testosterone is metabolized to produce 6-β testosterone). The test compound was synthesized by Zhejiang Plato Pharmaceutical Technology Co., Ltd., and dissolved in methanol to prepare a storage solution having a concentration of 25 mM. The enzymatic reaction was carried out in a 100 mM KH2PO4 buffer solution (pH 7.4) at a test compound concentration of 25 μM and a human liver microsome concentration of 2 mg/ml. The reaction was initiated by the addition of NADPH (final concentration 2 mM). After reacting for 5 min in a constant temperature shaking water bath, the reaction was terminated by the rapid addition of methanol at a volume of 1.5 times that of the reaction mixture. The reaction solution was centrifuged at a maximum speed of 13,600 rpm using an Eppendorf bench top centrifuge for 20 min, and the supernatant was taken. And then the supernatant was dried by a nitrogen blower and redissolved in mobile phase A (aqueous solution containing 5 mM ammonium acetate and 0.05% formic acid v/v). The resulting sample was analyzed by LC-MS/MS (Waters, Acquity UPLC HSS T3 column).

[2] = Compound tissue distribution experiment in rats (metabolites 2FM-UR, 2FM-UMP, 2FM-UTP by LC-MS/MS); assay type: in vivo, Sprague Dawley rats; settings: rat; for 2FM-UTP released in liver versus corresponding time points of sofosbuvir: 30 mg/Kg oral, p<0.01, FIG. 2; for 2FM-UMP released in the heart versus sofosbuvir: p<0.01, FIGS. 3A-3B; for Active molecule 2FM-UTP in the blood and heart: lower limit of quantitation 5 ng/mL or 5 ng/g
Procedure: Sprague Dawley rats, male, weighing 180-300 g, were provided by Shanghai Xipuer-Beikai Experimental Animal Co., Ltd. Male animals were allowed to adapt to the environment for more than 3 days, and fasted for 12 hours before the experiment, but were free to drink water. PA2020, PA2024, PA2029 and sofosbuvir were respectively dissolved in a mixed solvent of Cremophor EL, ethanol and normal saline at a volume ratio of 10:10:80 to prepare corresponding solutions. Before the administration, the animals' weight was checked to determine whether the rats met the experimental requirements. Twelve rats were selected for grouping, 2 rats in each group, and 30 mg/kg of a drug solution was administered intragastrically to the rats. Samples were respectively collected at 0.5 h, 1 h, 3 h, 6 h, 12 h and 24 h after the administration. After the rats were euthanized with carbon dioxide, the blood was collected from the heart and stored in heparin anticoagulation tubes. The blood was centrifuged at 6,000 rpm and 4° C. for 5 min, and the supernatant plasma was taken and stored in dry ice. The kidney, liver and heart of the rats were collected and rinsed with normal saline pre-cooled at 4° C. and stored in dry ice after the water was drained. After the experiment, the samples were stored in a −80° C. refrigerator.
Due to the difference in polarity, 2FM-UR, 2FM-UMP and 2FM-UTP were separated and detected using different methods, so that the used LC-triple quadrupole mass spectrometry detectors, the pretreatment conditions, chromatographic and mass spectrometric conditions varied among these compounds.
In the ice bath, 50 μL of plasma was first mixed with 50 μL of internal standard solution (10% trichloroacetic acid solution of tenofovir at 500 ng/mL). After centrifugation at 13,000 rpm and 4° C. for 10 min, 20 μL of the supernatant was mixed with 180 μL of water, and 5 μL of the resulting solution was injected and analyzed by LC-MS/MS.
The kidney, liver and heart tissue were mixed with a buffer in a volume ratio of 1:5 and fully disrupted in the ice bath. 20 μL of the tissue homogenate was mixed with 20 μL of the internal standard solution (500 ng/mL of tenofovir in 10% trichloroacetic acid solution). After centrifugation at 13,000 rpm for 10 min at 4° C., 20 μL of the supernatant was mixed with 180 μL of water, and 5 μL of the resulting solution was injected and analyzed by LC-MS/MS.
LC-MS/MS-AJ (Triple Quad 5500, AB SCIEX) was used for sample analysis. Column: Acquity UPLC HSS T3 (2.1×50 mm, […]); column temperature: 40° C.; flow rate: 0.5 mL/min. Mobile phase A: 0.1% aqueous formic acid, mobile phase B: acetonitrile solution. Mass spectrometry conditions corresponding to the internal standard: electrospray ionization (ESI) positive ion mode, multiple reaction monitoring (MRM) monitoring ion pair m/z: 288/176 (tenofovir), 261/113 (2FM-UR); the temperature was 500° C.; the scanning time was 0.03 s; the collision energy was 15V.
In the ice bath, 30 μL of plasma was first mixed with 30 μL of internal standard solution (5% trichloroacetic acid solution of 100 ng/mL tolbutamide). After centrifugation at 13,000 rpm for 10 min at 4° C., 40 μL of the supernatant was mixed with 80 μL of water, and 5 μL of the injection was analyzed.
Kidney, liver, heart tissue: in the ice bath, tissue and 5 volumes of homogenization buffer of organ tissues (1.75 mL of methanol, 5 μL of 50% KOH solution and 0.75 mL of 268 mM EDTA solution, pH=8) were fully disrupted and mixed. 60 μL of tissue homogenate was mixed with 60 μl of internal standard solution (5% trichloroacetic acid solution of 100 ng/mL tolbutamide). After centrifugation at 13,000 rpm for 10 minutes at 4° C., 40 μL of the supernatant was mixed with 80 μL of water, and 5 μL of the injection was analyzed.
LC-MS/MS-AJ (Triple Quad 5500, AB SCIEX) was used for sample analysis. Column: ACE 3 AQ (2.1×50 mm); column temperature: 55° C.; flow rate: 0.45 mL/min. […]

rat hepatocytes = settings: lamivudine triphosphate used as a reference; cited from earlier work
[3] = 30 mg/kg intragastric, within 24 h
[4] = 30 mg/kg intragastric, within 24 h, plasma
[5] = same dose (30 mg/kg), plasma, relative to sofosbuvir

Compound	Transformation rate relative to other candidate compounds [1]	2FM-UTP released in liver versus corresponding time points of sofosbuvir [2]	Exposure amount of 2FM-UMP in liver (AUC0-t) [2, 3]	Exposure amount of 2FM-UTP in liver (AUC0-t) [2, 3]	Exposure amount of 2FM-UMP in plasma (AUC0-t) [2, 4]	2FM-UMP released in the heart versus sofosbuvir ([2]; 30 mg/kg, heart)	Active molecule 2FM-UTP in the blood and heart ([2]; 30 mg/kg)	2FM-UR released in the heart versus equivalent dose of sofosbuvir ([2]; 30 mg/kg, heart, p<0.01, FIGS. 4A-4B)	2FM-UMP concentration in plasma as fraction of sofosbuvir [2, 5]	2FM-UR concentration in plasma relative to sofosbuvir [2, 5]	Corresponding active triphosphate compound produced in rat hepatocytes (rat hepatocytes)	Exposure amount of 2FM-UMP in heart (AUC0-t) ([2]; 30 mg/kg intragastric, within 24 h, heart, N.D. = below 5 ng/g or 5 ng/mL)
CCC(=O)O[C@@H]1[C@@H](COP2(=O)OCC[C@H](c3cccc(Cl)c3)O2)O[C@@H](n2ccc(=O)[nH]c2=O)[C@]1(C)F (stereo partly drawn)											87.8 nmol/g	
CC(C)OC(=O)[C@H](C)N[P@](=O)(OC[C@H]1O[C@@H](n2ccc(=O)[nH]c2=O)[C@](C)(F)[C@@H]1O)Oc1ccccc1 [SFB, sofosbuvir, reference compound]			27128 ng·h/g	2691 ng·h/g	5680 ng·h/g		could not be detected					417 ng·h/g

Continued, in another order:

Transformation rate relative to other candidate compounds [1]	2FM-UTP released in liver versus corresponding time points of sofosbuvir [2]	Exposure amount of 2FM-UMP in liver (AUC0-t) [2, 3]	Exposure amount of 2FM-UTP in liver (AUC0-t) [2, 3]	Exposure amount of 2FM-UMP in plasma (AUC0-t) [2, 4]	2FM-UMP released in the heart versus sofosbuvir ([2]; 30 mg/kg, heart)	Active molecule 2FM-UTP in the blood and heart ([2]; 30 mg/kg)	2FM-UR released in the heart versus equivalent dose of sofosbuvir ([2]; 30 mg/kg, heart, p<0.01, FIGS. 4A-4B)	2FM-UMP concentration in plasma as fraction of sofosbuvir [2, 5]	2FM-UR concentration in plasma relative to sofosbuvir [2, 5]	Compound	Corresponding active triphosphate compound produced in rat hepatocytes (rat hepatocytes)	Exposure amount of 2FM-UMP in heart (AUC0-t) ([2]; 30 mg/kg intragastric, within 24 h, heart, N.D. = below 5 ng/g or 5 ng/mL)
almost more than twice	significantly higher	65242 ng·h/g	9591 ng·h/g	105 ng·h/g	less	could not be detected				C[C@@]1(F)[C@H](O)[C@@H](COP2(=O)OCC[C@H](c3cc(Cl)cc(Cl)c3)O2)O[C@H]1n1ccc(=O)[nH]c1=O (stereo partly drawn) [PA2024]		
almost more than twice	significantly higher	102822 ng·h/g	26682 ng·h/g	439 ng·h/g	less	could not be detected				C[C@@]1(F)[C@H](O)[C@@H](COP2(=O)OCC[C@H](c3cc(F)cc(Cl)c3)O2)O[C@H]1n1ccc(=O)[nH]c1=O (stereo partly drawn) [PA2020]		
almost more than twice	significantly higher	110339 ng·h/g	11820 ng·h/g	1451 ng·h/g	less	could not be detected	less	¼	approximately half	C[C@@]1(F)[C@H](O)[C@@H](COP2(=O)OCC[C@H](c3cc(Cl)ccc3F)O2)O[C@H]1n1ccc(=O)[nH]c1=O (stereo partly drawn) [PA2029]		

Source: US11008361B2, “Liver-specific delivery-based anti-hepatitis C prodrug nucleoside cyclo-phosphate compound and uses thereof” (priority 2017, dated 2021)
